Reference: US11427549B2, “Pyrimidinyloxy benzo-fused compounds as herbicides” (FMC Corporation, priority 2017, dated 2022)

Experiments:
[1] = test system: barnyardgrass (Echinochloa crus-galli); assay: Test A preemergence, barnyardgrass; type: in vivo; details: Echinochloa crus-galli, pre-emergence, 240 h, 0 to 100 scale (0 no effect, 100 complete control), read-out: Plant response rating, Barnyardgrass; for pest or weed control at 31 g/ha: 31 g ai/ha; for pest or weed control at 125 g/ha: 125 g ai/ha
[2] = test system: kochia (Kochia scoparia); assay: Test A preemergence, kochia; type: in vivo; details: Bassia scoparia, pre-emergence, 240 h, 0 to 100 scale (0 no effect, 100 complete control), read-out: Plant response rating, Kochia; for pest or weed control at 31 g/ha: 31 g ai/ha; for pest or weed control at 125 g/ha: 125 g ai/ha
[3] = test system: ragweed (common ragweed, Ambrosia elatior); assay: Test A preemergence, ragweed; type: in vivo; details: Ambrosia artemisiifolia, pre-emergence, 240 h, 0 to 100 scale (0 no effect, 100 complete control), read-out: Plant response rating, Ragweed; for pest or weed control at 31 g/ha: 31 g ai/ha; for pest or weed control at 125 g/ha: 125 g ai/ha
[4] = test system: ryegrass, Italian (Italian ryegrass, Lolium multiflorum); assay: Test A preemergence, ryegrass, Italian; type: in vivo; details: Lolium multiflorum, pre-emergence, 240 h, 0 to 100 scale (0 no effect, 100 complete control), read-out: Plant response rating, Ryegrass, Italian; for pest or weed control at 31 g/ha: 31 g ai/ha; for pest or weed control at 125 g/ha: 125 g ai/ha
[5] = test system: pigweed (Amaranthus retroflexus); assay: Test A preemergence, pigweed; type: in vivo; details: Amaranthus retroflexus, pre-emergence, 240 h, 0 to 100 scale (0 no effect, 100 complete control), read-out: Plant response rating, Pigweed; for pest or weed control at 31 g/ha: 31 g ai/ha; for pest or weed control at 125 g/ha: 125 g ai/ha
[6] = test system: barnyardgrass (Echinochloa crus-galli); assay: Test A postemergence, barnyardgrass; type: in vivo; details: Echinochloa crus-galli, post-emergence, 240 h, 0 to 100 scale (0 no effect, 100 complete control), read-out: Plant response rating, Barnyardgrass; for pest or weed control at 31 g/ha: 31 g ai/ha; for pest or weed control at 125 g/ha: 125 g ai/ha
[7] = test system: kochia (Kochia scoparia); assay: Test A postemergence, kochia; type: in vivo; details: Bassia scoparia, post-emergence, 240 h, 0 to 100 scale (0 no effect, 100 complete control), read-out: Plant response rating, Kochia; for pest or weed control at 31 g/ha: 31 g ai/ha; for pest or weed control at 125 g/ha: 125 g ai/ha
[8] = test system: ragweed (common ragweed, Ambrosia elatior); assay: Test A postemergence, ragweed; type: in vivo; details: Ambrosia artemisiifolia, post-emergence, 240 h, 0 to 100 scale (0 no effect, 100 complete control), read-out: Plant response rating, Ragweed; for pest or weed control at 31 g/ha: 31 g ai/ha; for pest or weed control at 125 g/ha: 125 g ai/ha
[9] = test system: ryegrass, Italian (Italian ryegrass, Lolium multiflorum); assay: Test A postemergence, ryegrass, Italian; type: in vivo; details: Lolium multiflorum, post-emergence, 240 h, 0 to 100 scale (0 no effect, 100 complete control), read-out: Plant response rating, Ryegrass, Italian; for pest or weed control at 31 g/ha: 31 g ai/ha; for pest or weed control at 125 g/ha: 125 g ai/ha
[10] = test system: foxtail, green (green foxtail, Setaria viridis); assay: Test A postemergence, foxtail, green; type: in vivo; details: Setaria, post-emergence, 240 h, 0 to 100 scale (0 no effect, 100 complete control), read-out: Plant response rating, Foxtail, Green; for pest or weed control at 31 g/ha: 31 g ai/ha; for pest or weed control at 125 g/ha: 125 g ai/ha
[11] = test system: pigweed (Amaranthus retroflexus); assay: Test A postemergence, pigweed; type: in vivo; details: Amaranthus retroflexus, post-emergence, 240 h, 0 to 100 scale (0 no effect, 100 complete control), read-out: Plant response rating, Pigweed; for pest or weed control at 31 g/ha: 31 g ai/ha; for pest or weed control at 125 g/ha: 125 g ai/ha
[12] = test system: wheat (Triticum aestivum); assay: Test A postemergence, wheat; type: in vivo; details: Triticum aestivum, post-emergence, 240 h, 0 to 100 scale (0 no effect, 100 complete control), read-out: Plant response rating, Wheat; for plant injury at 31 g/ha: 31 g ai/ha; for plant injury at 125 g/ha: 125 g ai/ha
[13] = test system: corn (Zea mays); assay: Test A postemergence, corn; type: in vivo; details: Zea mays, post-emergence, 240 h, 0 to 100 scale (0 no effect, 100 complete control); for Corn plant response rating (crop injury, 0 = no effect, 100 = complete kill) at 31 g/ha: 31 g ai/ha; for Corn plant response rating (crop injury, 0 = no effect, 100 = complete kill) at 125 g/ha: 125 g ai/ha
[14] = test system: blackgrass (Alopecurus myosuroides); assay: Test A postemergence, blackgrass; type: in vivo; details: Alopecurus myosuroides, post-emergence, 240 h, 0 to 100 scale (0 no effect, 100 complete control), read-out: Plant response rating, Blackgrass; for pest or weed control at 31 g/ha: 31 g ai/ha; for pest or weed control at 125 g/ha: 125 g ai/ha
[15] = test system: galium (catchweed bedstraw, Galium aparine); assay: Test A postemergence, galium; type: in vivo; details: Galium, post-emergence, 240 h, 0 to 100 scale (0 no effect, 100 complete control), read-out: Plant response rating, Galium; for pest or weed control at 31 g/ha: 31 g ai/ha; for pest or weed control at 125 g/ha: 125 g ai/ha
[16] = test system: rice (Oryza sativa); assay: Test B flooded paddy test, rice; details: Oryza sativa, read-out: Plant response rating, Rice (0 to 100 scale, 0 is no effect, 100 is complete control)
[17] = test system: ducksalad (Heteranthera limosa); assay: Test B flooded paddy test, ducksalad; details: Heteranthera limosa, read-out: Plant response rating, Ducksalad (0 to 100 scale, 0 is no effect, 100 is complete control)
[18] = test system: barnyardgrass (Echinochloa crus-galli); assay: Test B flooded paddy test, barnyardgrass; details: Echinochloa crus-galli, read-out: Plant response rating, Barnyardgrass (0 to 100 scale, 0 is no effect, 100 is complete control)

| Structure (SMILES) | pest or weed control at 31 g/ha [1] [%] | pest or weed control at 125 g/ha [1] [%] | pest or weed control at 31 g/ha [2] [%] | pest or weed control at 125 g/ha [2] [%] | pest or weed control at 31 g/ha [3] [%] | pest or weed control at 125 g/ha [3] [%] | pest or weed control at 31 g/ha [4] [%] | pest or weed control at 125 g/ha [4] [%] | pest or weed control at 31 g/ha [5] [%] | pest or weed control at 125 g/ha [5] [%] | pest or weed control at 31 g/ha [6] [%] | pest or weed control at 125 g/ha [6] [%] | pest or weed control at 31 g/ha [7] [%] | pest or weed control at 125 g/ha [7] [%] | pest or weed control at 31 g/ha [8] [%] | pest or weed control at 125 g/ha [8] [%] | pest or weed control at 31 g/ha [9] [%] | pest or weed control at 125 g/ha [9] [%] | pest or weed control at 31 g/ha [10] [%] | pest or weed control at 125 g/ha [10] [%] | further results |
| --- | --- | --- | --- | --- | --- | --- | --- | --- | --- | --- | --- | --- | --- | --- | --- | --- | --- | --- | --- | --- | --- |
| FC(F)(F)CCCC1CCc2cccc(Oc3ncc(Cl)cn3)c21 (stereo not drawn) [Compound 9, 5-Chloro-2-[[2,3-dihydro-3-(4,4,4-trifluorobutyl)-1H-inden-4-yl]oxy]pyrimidine] | 10 | 90 | 10 | 50 | 0 | 10 | 10 | 50 | 10 | 100 | 20 | 50 | 50 | 80 | 0 | 10 | 10 | 30 | 20 | 60 | pest or weed control at 31 g/ha [11]: 80%; pest or weed control at 125 g/ha [11]: 100%; plant injury at 31 g/ha [12]: 10%; plant injury at 125 g/ha [12]: 20%; Corn plant response rating (crop injury, 0 = no effect, 100 = complete kill) at 31 g/ha [13]: 20%; Corn plant response rating (crop injury, 0 = no effect, 100 = complete kill) at 125 g/ha [13]: 30%; pest or weed control at 31 g/ha [14]: 20%; pest or weed control at 125 g/ha [14]: 80%; pest or weed control at 31 g/ha [15]: 20%; pest or weed control at 125 g/ha [15]: 30%; plant injury at 250 g/ha [16]: 50%; pest or weed control at 250 g/ha [17]: 100%; pest or weed control at 250 g/ha [18]: 70% |
| OC1CC(CCCC(F)(F)F)c2c(Oc3ncc(Cl)cn3)cccc21 (stereo not drawn) [Compound 10, 4-[(5-Chloro-2-pyrimidinyl)oxy]-2,3-dihydro-3-(4,4,4-trifluorobutyl)-1H-inden-1-ol] | 10 | 70 | 0 | 30 | 0 | 0 | 10 | 30 | 100 | 100 | 10 | 40 | 10 | 60 | 0 | 10 | 0 | 30 | 10 | 50 | pest or weed control at 31 g/ha [11]: 50%; pest or weed control at 125 g/ha [11]: 90%; plant injury at 31 g/ha [12]: 0%; plant injury at 125 g/ha [12]: 10%; Corn plant response rating (crop injury, 0 = no effect, 100 = complete kill) at 31 g/ha [13]: 10%; Corn plant response rating (crop injury, 0 = no effect, 100 = complete kill) at 125 g/ha [13]: 30%; pest or weed control at 31 g/ha [14]: 10%; pest or weed control at 125 g/ha [14]: 20%; pest or weed control at 31 g/ha [15]: 10%; pest or weed control at 125 g/ha [15]: 20%; plant injury at 250 g/ha [16]: 25%; pest or weed control at 250 g/ha [17]: 95%; pest or weed control at 250 g/ha [18]: 45% |
